Reference: the supplement of paper PMC10307832

Key:
Assay in all cases: relative viability (nuclei count vs DMSO), 5 days (fraction); higher = more cells survive
Idelalisib + Foretinib = compound: CC[C@H](Nc1ncnc2[nH]cnc12)c1nc2cccc(F)c2c(=O)n1-c1ccccc1 [Idelalisib] + COc1cc2c(Oc3ccc(NC(=O)C4(C(=O)Nc5ccc(F)cc5)CC4)cc3F)ccnc2cc1OCCCN1CCOCC1 [Foretinib] (partner 0.25 µM)
Method in brief: (§1)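 Five library-drug doses in √10 steps were combined with a fixed anchor-drug dose, or a single drug was given alone, by pin tool to lung cancer cell lines in 1536-well plates the day after seeding. Nuclei were stained and counted after 5 days. Relative viability is the nuclei count in treated wells over that in vehicle wells, taken as the median of duplicate plates.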

Idelalisib + Crizotinib = compound: CC[C@H](Nc1ncnc2[nH]cnc12)c1nc2cccc(F)c2c(=O)n1-c1ccccc1 [Idelalisib] + C[C@@H](Oc1cc(-c2cnn(C3CCNCC3)c2)cnc1N)c1c(Cl)ccc(F)c1Cl [Crizotinib] (partner 1 µM)
Method in brief: as §1

Idelalisib + Vorinostat = compound: CC[C@H](Nc1ncnc2[nH]cnc12)c1nc2cccc(F)c2c(=O)n1-c1ccccc1 [Idelalisib] + O=C(CCCCCCC(=O)Nc1ccccc1)NO [Vorinostat] (partner 1 µM)
Method in brief: as §1

Pemetrexed + Tozasertib = compound: Nc1nc2[nH]cc(CCc3ccc(C(=O)N[C@@H](CCC(=O)O)C(=O)O)cc3)c2c(=O)[nH]1 [Pemetrexed] + Cc1cc(Nc2cc(N3CCN(C)CC3)nc(Sc3ccc(NC(=O)C4CC4)cc3)n2)n[nH]1 [Tozasertib] (partner 0.1 µM)
Method in brief: as §1

Cell Line | relative viability (Idelalisib + Foretinib; first compound 0.04 µM) | relative viability (Idelalisib + Foretinib; first compound 0.1265 µM) | relative viability (Idelalisib + Foretinib; first compound 0.4 µM) | relative viability (Idelalisib + Foretinib; first compound 1.265 µM) | relative viability (Idelalisib + Foretinib; first compound 4 µM) | relative viability (Idelalisib + Crizotinib; first compound 0.04 µM) | relative viability (Idelalisib + Crizotinib; first compound 0.1265 µM) | relative viability (Idelalisib + Crizotinib; first compound 0.4 µM) | relative viability (Idelalisib + Crizotinib; first compound 1.265 µM) | relative viability (Idelalisib + Crizotinib; first compound 4 µM) | relative viability (Idelalisib + Vorinostat; first compound 0.04 µM) | relative viability (Idelalisib + Vorinostat; first compound 0.1265 µM) | relative viability (Idelalisib + Vorinostat; first compound 0.4 µM) | relative viability (Idelalisib + Vorinostat; first compound 1.265 µM) | relative viability (Idelalisib + Vorinostat; first compound 4 µM) | relative viability (Pemetrexed + Tozasertib; first compound 0.002 µM) | relative viability (Pemetrexed + Tozasertib; first compound 0.006325 µM) | relative viability (Pemetrexed + Tozasertib; first compound 0.02 µM) | relative viability (Pemetrexed + Tozasertib; first compound 0.06325 µM) | relative viability (Pemetrexed + Tozasertib; first compound 0.2 µM)
NCI-H2009 | 1.17 | 1.21 | 1.16 | 1.23 | 1.14 | 1.02 | 1.04 | 1.03 | 0.991 | 1.01 | 0.751 | 0.751 | 0.663 | 0.688 | 0.72 | 0.707 | 0.697 | 0.855 | 0.71 | 0.694
NCI-H2023 | 0.92 | 0.859 | 0.617 | 0.739 | 0.637 | 0.63 | 0.662 | 0.487 | 0.579 | 0.54 | 0.909 | 0.702 | 0.469 | 0.375 | 0.682 | 0.245 | 0.338 | 0.364 | 0.379 | 0.223
NCI-H2085 | 0.971 | 0.913 | 0.688 | 0.777 | 0.556 | 0.86 | 0.897 | 0.761 | 0.736 | 0.81 | 0.794 | 0.788 | 0.702 | 0.614 | 0.484 | 0.735 | 0.811 | 0.882 | 0.849 | 0.784
NCI-H2087 | 1.28 | 1.04 | 0.842 | 0.908 | 0.579 | 0.894 | 0.911 | 0.901 | 1.1 | 0.93 | 0.592 | 0.667 | 0.614 | 0.781 | 0.204 | 0.257 | 0.276 | 0.287 | 0.297 | 0.232
NCI-H2126 | 1.21 | 1.26 | 1.06 | 1.33 | 1.09 | 1.04 | 1 | 0.967 | 1.03 | 1.02 | 0.932 | 0.865 | 0.464 | 0.861 | 0.671 | 0.711 | 0.845 | 0.875 | 0.775 | 0.643
NCI-H2170 | 0.952 | 1.05 | 0.947 | 1.03 | 0.947 | 1.23 | 1.18 | 1.07 | 1.07 | 0.983 | 0.732 | 0.805 | 0.761 | 0.716 | 0.669 | 0.714 | 0.644 | 0.636 | 0.829 | 0.602
NCI-H2228 | 0.874 | 0.835 | 0.614 | 0.87 | 0.788 | 0.476 | 0.389 | 0.354 | 0.413 | 0.355 | 0.812 | 0.53 | 0.482 | 0.588 | 0.613 | 0.318 |  | 0.266 | 0.209 | 0.173
NCI-H2347 | 0.845 | 0.701 | 0.818 | 1.12 | 0.664 | 0.586 | 0.734 | 0.64 | 0.851 | 0.666 | 0.639 | 0.572 | 0.511 | 0.624 | 0.403 | 0.337 | 0.516 | 0.595 | 0.589 | 0.356
NCI-H2405 | 1.11 | 1.06 | 0.952 | 1.01 | 0.956 | 0.846 | 0.814 | 0.708 | 0.76 | 0.692 | 1.2 | 1.05 | 0.908 | 1.04 | 1.06 | 0.75 | 0.738 | 0.832 | 0.778 | 0.694
NCI-H3122 | 0.963 | 0.939 | 1 | 0.982 | 0.836 | 0.296 | 0.28 | 0.3 | 0.283 | 0.289 | 1.01 | 1.07 | 0.933 | 1.02 | 0.579 | 0.404 | 0.371 | 0.367 | 0.198 | 0.118
PC-3 [JPC-3] | 1.01 | 0.961 | 1.01 | 1.06 | 0.957 | 1 | 1.04 | 0.94 | 0.98 | 0.881 | 1.04 | 0.952 | 0.841 | 0.86 | 0.747 | 0.82 | 0.939 | 0.895 | 0.878 | 0.861
PC-14 | 1.05 | 0.988 | 0.933 | 0.995 | 0.968 | 0.821 | 0.947 | 0.882 | 0.905 | 0.908 | 0.901 | 0.709 | 0.633 | 0.363 | 0.68 | 0.661 | 0.564 | 0.676 | 0.416 | 0.222
RERF-LC-KJ | 0.879 | 0.953 | 0.809 | 0.871 | 0.768 | 0.94 | 0.845 | 0.847 | 0.785 | 0.861 | 0.826 | 0.754 | 0.725 | 0.697 | 0.512 | 0.52 | 0.477 | 0.526 | 0.475 | 0.325
SK-LU-1 | 0.816 | 0.765 | 0.811 | 0.693 | 0.766 | 0.923 | 1.06 | 0.826 | 0.777 | 0.826 | 0.739 | 0.735 | 0.645 | 0.813 | 0.768 | 0.303 | 0.324 | 0.374 | 0.378 | 0.333
SK-MES-1 | 0.904 | 0.768 | 0.55 | 0.768 | 0.544 | 1.06 | 0.959 | 0.888 | 0.876 | 0.789 | 1.19 | 1.06 | 0.974 | 0.395 | 1.04 | 0.891 | 0.843 | 0.879 | 0.843 | 0.817
SW 1573 | 1.05 | 1.07 | 0.786 | 0.986 | 0.971 | 0.794 | 0.682 | 0.836 | 0.832 | 0.833 | 0.907 | 0.629 | 0.7 | 0.556 | 0.49 | 0.241 | 0.197 | 0.201 | 0.139 | 0.178
